From ChEMBL document CHEMBL4418495, “Entpd5 inhibitors” (2012)
Activity calls are given as the source filed them.

How the values were obtained:
[1] = biological target: T1, Nucleoside diphosphate phosphatase ENTPD5 (Homo sapiens, UniProt O75356); experiment: Inhibition of human recombinant ENTPD5 expressed in insect cells assessed as reduction in UDP hydrolysis incubated for 1 hr in presence of UMP, GTP and ATP by Escherichia coli UMP kinase pyrH catalyzed UMP phosphorylation coupled luciferase assay
T1 sequence (O75356 whole entry): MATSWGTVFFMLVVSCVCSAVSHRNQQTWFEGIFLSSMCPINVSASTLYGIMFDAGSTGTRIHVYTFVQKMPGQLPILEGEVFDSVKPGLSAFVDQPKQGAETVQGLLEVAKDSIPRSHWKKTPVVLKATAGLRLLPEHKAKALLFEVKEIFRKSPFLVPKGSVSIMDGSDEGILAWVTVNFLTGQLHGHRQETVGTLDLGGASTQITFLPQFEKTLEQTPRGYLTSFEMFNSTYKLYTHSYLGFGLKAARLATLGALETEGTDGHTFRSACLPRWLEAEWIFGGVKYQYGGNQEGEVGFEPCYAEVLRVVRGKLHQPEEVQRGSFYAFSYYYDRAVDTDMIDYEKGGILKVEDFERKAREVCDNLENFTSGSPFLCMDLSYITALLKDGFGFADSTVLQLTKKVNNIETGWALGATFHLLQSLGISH

MEF = experiment: Toxicity in PTEN knockout mouse MEF cells assessed as reduction in cell viability at 30 uM incubated for 24 hrs; assay type: cell-based
[2] = biological target: T2, Nucleoside diphosphate phosphatase ENTPD5 (Homo sapiens) (UniProt O75356); experiment: Inhibition of human recombinant ENTPD5 expressed in insect cells assessed as reduction in UDP hydrolysis at 1 uM incubated for 1 hr in presence of UMP, GTP and ATP by Escherichia coli UMP kinase pyrH catalyzed UMP phosphorylation coupled luciferase assay
T2 sequence (whole entry): T1 sequence (O75356 whole entry)

[3] = biological target: T3, Ectonucleoside triphosphate diphosphohydrolase 5 (Mus musculus) (UniProt Q9WUZ9); experiment: Inhibition of ENTPD5 in PTEN knockout mouse MEF cells assessed as induction of ER stress by measuring increase in EGF receptor degradation incubated for 24 hrs by Western blotting analysis; assay type: cell-based
T3 sequence (whole entry): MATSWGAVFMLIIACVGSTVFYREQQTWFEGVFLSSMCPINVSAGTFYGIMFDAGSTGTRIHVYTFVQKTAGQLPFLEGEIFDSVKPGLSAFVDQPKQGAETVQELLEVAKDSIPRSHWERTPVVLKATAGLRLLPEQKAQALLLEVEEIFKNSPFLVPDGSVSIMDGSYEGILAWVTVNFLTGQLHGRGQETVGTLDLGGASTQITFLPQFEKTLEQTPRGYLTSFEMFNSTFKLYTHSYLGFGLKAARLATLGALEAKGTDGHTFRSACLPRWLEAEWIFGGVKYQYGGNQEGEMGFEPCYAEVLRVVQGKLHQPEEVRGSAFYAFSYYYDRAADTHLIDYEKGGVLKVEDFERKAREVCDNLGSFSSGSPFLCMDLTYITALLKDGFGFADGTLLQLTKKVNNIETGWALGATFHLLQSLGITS

[4] = biological target: T4, Uridylate kinase (Escherichia coli (strain K12)) (UniProt P0A7E9); experiment: Inhibition of recombinant Escherichia coli UMP kinase pyrH catalyzed UMP phosphorylation in presence of GTP and ATP incubated for 1 hr by luminescence based assay
T4 sequence (whole entry): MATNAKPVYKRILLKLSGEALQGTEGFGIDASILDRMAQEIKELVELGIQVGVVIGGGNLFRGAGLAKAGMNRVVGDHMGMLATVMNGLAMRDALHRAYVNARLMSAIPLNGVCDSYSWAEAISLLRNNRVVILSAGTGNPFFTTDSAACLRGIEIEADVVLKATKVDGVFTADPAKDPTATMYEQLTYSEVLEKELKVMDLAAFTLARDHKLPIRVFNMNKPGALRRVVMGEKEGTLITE

LNCaP [5] = experiment: Antitumor activity against human LNCAP cells xenografted in mouse assessed as reduction in cells left in matrigels at 1 to 100 mg/kg, ip dosed every other day and measured after 6 weeks by hematoxylin and eosin staining based microscopy; assay type: functional, organism-based
[6] = biological target: T3, Ectonucleoside triphosphate diphosphohydrolase 5 (Mus musculus); experiment: Inhibition of ENTPD5 in PTEN knockout mouse MEF cells assessed as induction of ER stress by measuring increase in GRP78/BiP expression at 30 uM incubated for 24 hrs by Western blotting analysis; assay type: cell-based
[7] = biological target: T3, Ectonucleoside triphosphate diphosphohydrolase 5 (Mus musculus); experiment: Inhibition of ENTPD5 in PTEN knockout mouse MEF cells assessed as induction of ER stress by measuring increase in GRP78/BiP expression incubated for 24 hrs by Western blotting analysis; assay type: cell-based
[8] = biological target: T2, Nucleoside diphosphate phosphatase ENTPD5 (Homo sapiens); experiment: Inhibition of human recombinant ENTPD5 expressed in insect cells assessed as reduction in UDP hydrolysis up to 10 uM incubated for 1 hr in presence of UMP, GTP and ATP by Escherichia coli UMP kinase pyrH catalyzed UMP phosphorylation coupled luciferase assay
[9] = biological target: T2, Nucleoside diphosphate phosphatase ENTPD5 (Homo sapiens); experiment: Inhibition of human recombinant ENTPD5 expressed in insect cells assessed as reduction in reduction in UDP hydrolysis by measuring inorganic phosphate release incubated for 1 hr by malachite green based assay
LNCaP [10] = experiment: Antitumor activity against human LNCAP cells xenografted in mouse assessed as induction of tumor shrinkage at 1 to 100 mg/kg, ip dosed every other day and measured after 6 weeks by microscopy; assay type: functional, organism-based

| Structure (SMILES) | IC50 [1] | Activity (MEF) | inhibition [2] | inhibition [3] | inhibition [4] | Activity (LNCaP [5]) | inhibition [6] | inhibition [7] | inhibition [8] | inhibition [9] | Activity (LNCaP [10]) |
| --- | --- | --- | --- | --- | --- | --- | --- | --- | --- | --- | --- |
| C[C@H]1CC[C@]2(C)C(CCCC2(C)C)[C@]1(C)c1cc(O)ccc1O (stereo partly drawn) | 30 µM |  |  |  |  |  |  |  |  |  |  |
| C[C@H]1CC[C@H]2C(C)(C)CCC[C@]23Oc2ccc(O)cc2C[C@]13C [AUREOL] | 15 to 20 µM | Toxic |  |  |  |  |  |  |  |  |  |
| CCOc1ccc(N2C(=O)/C(=C/c3cccn3-c3ccc(Br)cc3)C(=O)NC2=S)c(F)c1 |  |  | Active | Dose-dependent effect | inactive | Active | Active | Dose-dependent effect | Dose-dependent effect | Active | Active |
| C[C@H]1CC[C@@H]2C(CCCC2(C)C)[C@]1(C)c1cc(O)ccc1O (stereo partly drawn) | 30 µM |  |  |  |  |  |  |  |  |  |  |
| CCOC(=O)c1ccc(-c2ccc(/C=C3/C(=O)NC(=O)N(Cc4ccco4)C3=O)o2)cc1 |  |  | Active |  | inactive | Active | Active |  | Dose-dependent effect | Active | Active |
| O=C1/C(=C/c2ccc(O)cc2O)CCC/C1=C\c1ccc(O)cc1O |  |  | Active |  | inactive | Active | Active |  | Dose-dependent effect | Active | Active |
| O=C1NC(=O)C(=Cc2ccc(-c3ccc(I)cc3)o2)C(=O)N1 |  |  | Active |  | inactive | Active | Active |  | Dose-dependent effect | Active | Active |
| S=C(Nc1ccc2nc(-c3ccco3)c(-c3ccco3)nc2c1)N1CCCCCC1 |  |  | Active |  | inactive | Active | Active |  | Dose-dependent effect | Active | Active |
| O=C1NC(=S)N(c2ccccc2)C(=O)/C1=C/c1ccc(-c2cc([N+](=O)[O-])ccc2Cl)o1 |  |  | Active |  | inactive | Active | Active |  | Dose-dependent effect | Active | Active |
| O=C(Nc1ccccc1)NC(N1CCOCC1)C(Cl)(Cl)Cl (stereo not drawn) |  |  | Active |  | inactive | Active | Active |  | Dose-dependent effect | Active | Active |
| O=C1NC(=S)N(c2ccccc2)C(=O)/C1=C/c1ccc(-c2ccc(F)cc2)o1 |  |  | Active |  | inactive | Active | Active |  | Dose-dependent effect | Active | Active |
| O=C(Oc1ccc2ccccc2c1)c1ccc2c(c1)C1C=CCC1C(C(=O)O)N2 (stereo not drawn) |  |  | Active |  | inactive | Active | Active |  | Dose-dependent effect | Active | Active |
| S=C(Nc1ccc2nc(-c3ccco3)c(-c3ccco3)nc2c1)N1CCCC1 |  |  | Active |  | inactive | Active | Active |  | Dose-dependent effect | Active | Active |
| O=C1/C(=C/c2ccco2)C(=O)N(c2ccc(Br)cc2)C(=S)N1c1ccccc1 |  |  | Active |  | inactive | Active | Active |  | Dose-dependent effect | Active | Active |
| Cc1ccc(-c2ccc(C=C3C(=O)NC(=S)NC3=O)o2)c(Br)c1 |  |  | Active |  | inactive | Active | Active |  | Dose-dependent effect | Active | Active |
| O=C1NC(=S)NC(=O)C1=Cc1ccc(-c2cc(Cl)ccc2Cl)o1 |  |  | Active |  | inactive | Active | Active |  | Dose-dependent effect | Active | Active |
| COc1ccccc1/C=N\NC(=O)c1cc2c(C)nn(-c3ccccc3)c2s1 |  |  | Active |  | inactive | Active | Active |  | Dose-dependent effect | Active | Active |
| O=C1NC(=S)N(c2ccc(Cl)cc2)C(=O)/C1=C\c1ccc(-c2ccc([N+](=O)[O-])cc2)o1 |  |  | Active |  | inactive | Active | Active |  | Dose-dependent effect | Active | Active |
| O=C(CN1C(=O)/C(=C2\SC(N3CCOCC3)=NC2=O)c2ccccc21)Nc1cccc(Br)c1 |  |  | Active |  | inactive | Active | Active |  | Dose-dependent effect | Active | Active |
| CC1(C)CCC[C@]2(C)[C@H]3Cc4cc(O)ccc4O[C@]3(C)CC[C@@H]12 | 10 µM |  |  |  |  |  |  |  |  |  |  |
| COc1ccc(-n2cccc2/C=C2\C(=O)NC(=S)N(c3cccc(Br)c3)C2=O)cc1 |  |  | Active | Dose-dependent effect | inactive | Active | Active | Dose-dependent effect | Dose-dependent effect | Active | Active |
